Measured values published in US11208412B2 (DAEGU-GYEONGBUK MEDICAL INNOVATION FOUNDATION, priority 2017, dated 2021).

How the values were obtained:
Assay in all cases: Kinase selectivity, DiscoverX scanMAX Kinase assay panel (% control)
Assay type in all cases: binding
[1] = target: T1, kinases of the scanMAX Kinase assay panel (Homo sapiens, UniProt Q9UBE8); conditions: NLK; 1 uM
T1 construct: purchased DiscoverX Co. (contract measurement) scanMAX Kinase assay panel
T1 sequence (Q9UBE8 1-527): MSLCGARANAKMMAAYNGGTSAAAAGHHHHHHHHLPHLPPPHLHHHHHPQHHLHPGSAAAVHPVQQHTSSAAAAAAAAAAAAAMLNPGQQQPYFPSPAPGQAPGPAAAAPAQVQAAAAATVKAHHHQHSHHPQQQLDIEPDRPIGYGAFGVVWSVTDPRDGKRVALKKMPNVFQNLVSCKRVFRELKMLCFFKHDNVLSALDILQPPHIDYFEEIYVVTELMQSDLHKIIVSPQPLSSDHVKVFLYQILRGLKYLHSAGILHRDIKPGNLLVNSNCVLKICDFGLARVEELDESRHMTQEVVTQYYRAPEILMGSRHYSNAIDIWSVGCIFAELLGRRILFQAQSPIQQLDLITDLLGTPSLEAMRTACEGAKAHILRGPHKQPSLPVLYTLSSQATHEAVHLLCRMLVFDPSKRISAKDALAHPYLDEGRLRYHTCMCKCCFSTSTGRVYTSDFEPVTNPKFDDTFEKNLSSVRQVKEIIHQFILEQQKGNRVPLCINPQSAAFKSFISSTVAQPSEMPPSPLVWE
Experimental: (§1) The following experiment was performed to evaluate the activity of the compounds of the present invention to inhibit many enzymes.
(§2) Particularly, the compounds of Examples 8, 64 and 104 were selected among all of those compounds of the invention. DiscoverX Co. was asked to measure the enzyme (kinase) selectivity, and the experiment was performed using scanMAX™ Kinase assay panel.
(§3) Wherein, the concentration of the drug treated to each enzyme was 1 uM in DMSO and the control percentage (% control) was determined by the following Equation 1. (example compound−positive control)/(negative control−positive control)×100 [Equation 1]
(§4) Herein, the positive control indicates the compound showing the % control of 0%, and the negative control indicates DMSO showing the % control of 100%. The enzyme selectivity in the present invention is defined as follows: When the % control for each enzyme is less than 35% (<35%), it is judged that the compound has the activity to the corresponding enzyme.

[2] = target: T2, kinases of the scanMAX Kinase assay panel (Homo sapiens, UniProt Q13555); conditions: CAMK2G; 1 uM
T2 construct: purchased DiscoverX Co. (contract measurement) scanMAX Kinase assay panel
T2 sequence (Q13555 whole entry): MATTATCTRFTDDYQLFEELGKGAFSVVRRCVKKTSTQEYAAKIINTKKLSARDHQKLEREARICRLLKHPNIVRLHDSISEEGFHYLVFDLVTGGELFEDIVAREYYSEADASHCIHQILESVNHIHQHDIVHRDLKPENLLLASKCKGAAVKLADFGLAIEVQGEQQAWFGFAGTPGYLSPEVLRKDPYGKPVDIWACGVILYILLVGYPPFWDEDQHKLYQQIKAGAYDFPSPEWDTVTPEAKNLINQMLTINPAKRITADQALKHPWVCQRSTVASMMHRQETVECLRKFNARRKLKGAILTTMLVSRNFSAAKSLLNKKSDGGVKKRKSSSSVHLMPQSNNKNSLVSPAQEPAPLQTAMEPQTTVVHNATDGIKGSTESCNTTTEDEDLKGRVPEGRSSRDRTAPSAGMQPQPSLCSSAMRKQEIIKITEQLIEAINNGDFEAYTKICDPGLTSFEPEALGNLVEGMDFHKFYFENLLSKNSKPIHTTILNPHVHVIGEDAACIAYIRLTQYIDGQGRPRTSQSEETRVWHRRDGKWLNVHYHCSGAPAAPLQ
Experimental: as §1, §2, §3, §4

[3] = target: T3, kinases of the scanMAX Kinase assay panel (Homo sapiens, UniProt Q9BYP7); conditions: kinase WNK3; 1 uM in DMSO
T3 construct: purchased DiscoverX Co. (contract measurement) scanMAX Kinase assay panel
T3 sequence (Q9BYP7 whole entry): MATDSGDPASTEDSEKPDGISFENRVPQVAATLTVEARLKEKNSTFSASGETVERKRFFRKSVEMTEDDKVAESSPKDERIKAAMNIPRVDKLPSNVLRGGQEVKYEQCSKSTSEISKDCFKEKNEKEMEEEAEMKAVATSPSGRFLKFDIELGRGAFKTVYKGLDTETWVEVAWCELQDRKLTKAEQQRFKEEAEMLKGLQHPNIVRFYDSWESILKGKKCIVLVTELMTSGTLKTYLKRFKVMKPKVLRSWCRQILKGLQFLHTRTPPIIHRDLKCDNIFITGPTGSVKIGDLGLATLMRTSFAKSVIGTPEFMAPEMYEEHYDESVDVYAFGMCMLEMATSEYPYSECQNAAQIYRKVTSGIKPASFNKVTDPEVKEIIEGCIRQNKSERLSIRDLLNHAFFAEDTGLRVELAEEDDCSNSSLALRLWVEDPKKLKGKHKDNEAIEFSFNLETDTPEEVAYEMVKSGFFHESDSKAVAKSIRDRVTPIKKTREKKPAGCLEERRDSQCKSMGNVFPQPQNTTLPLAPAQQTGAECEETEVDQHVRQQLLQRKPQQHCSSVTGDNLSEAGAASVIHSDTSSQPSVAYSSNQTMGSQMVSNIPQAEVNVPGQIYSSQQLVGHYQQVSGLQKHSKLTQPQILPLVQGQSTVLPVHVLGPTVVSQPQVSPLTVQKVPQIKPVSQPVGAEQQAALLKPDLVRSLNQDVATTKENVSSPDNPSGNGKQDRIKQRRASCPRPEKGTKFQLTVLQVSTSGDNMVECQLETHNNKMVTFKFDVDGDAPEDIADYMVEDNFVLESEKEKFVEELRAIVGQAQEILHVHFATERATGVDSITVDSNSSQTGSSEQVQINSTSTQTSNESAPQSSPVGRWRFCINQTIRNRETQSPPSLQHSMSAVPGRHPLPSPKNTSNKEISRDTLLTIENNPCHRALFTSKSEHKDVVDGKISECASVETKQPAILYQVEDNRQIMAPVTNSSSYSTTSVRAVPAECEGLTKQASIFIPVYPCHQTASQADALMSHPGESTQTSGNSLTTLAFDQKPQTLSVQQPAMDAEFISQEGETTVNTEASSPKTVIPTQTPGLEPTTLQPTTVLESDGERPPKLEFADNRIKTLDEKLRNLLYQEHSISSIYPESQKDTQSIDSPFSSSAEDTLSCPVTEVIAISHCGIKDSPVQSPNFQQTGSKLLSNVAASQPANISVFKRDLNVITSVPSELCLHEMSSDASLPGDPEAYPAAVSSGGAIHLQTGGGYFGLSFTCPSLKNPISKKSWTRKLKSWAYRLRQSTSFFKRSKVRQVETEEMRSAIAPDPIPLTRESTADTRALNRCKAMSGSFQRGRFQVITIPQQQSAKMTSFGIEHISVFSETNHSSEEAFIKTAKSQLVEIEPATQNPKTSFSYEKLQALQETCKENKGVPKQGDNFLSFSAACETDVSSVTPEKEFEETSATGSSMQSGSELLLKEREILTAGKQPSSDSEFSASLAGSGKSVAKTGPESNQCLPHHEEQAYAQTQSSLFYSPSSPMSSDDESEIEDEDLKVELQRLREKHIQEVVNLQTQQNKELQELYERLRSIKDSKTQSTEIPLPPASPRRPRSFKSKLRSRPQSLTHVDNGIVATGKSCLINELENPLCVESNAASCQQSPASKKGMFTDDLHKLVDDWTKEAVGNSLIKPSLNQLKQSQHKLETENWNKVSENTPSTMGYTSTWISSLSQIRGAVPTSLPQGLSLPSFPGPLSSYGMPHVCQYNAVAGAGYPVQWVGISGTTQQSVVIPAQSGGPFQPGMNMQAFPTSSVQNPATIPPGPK
Experimental: as §1, §2, §3, §4

[4] = target: T4, kinases of the scanMAX Kinase assay panel (Homo sapiens, UniProt Q96D53); conditions: ADCK4; 1 uM
T4 construct: purchased DiscoverX Co. (contract measurement) scanMAX Kinase assay panel
T4 sequence (Q96D53 1-544): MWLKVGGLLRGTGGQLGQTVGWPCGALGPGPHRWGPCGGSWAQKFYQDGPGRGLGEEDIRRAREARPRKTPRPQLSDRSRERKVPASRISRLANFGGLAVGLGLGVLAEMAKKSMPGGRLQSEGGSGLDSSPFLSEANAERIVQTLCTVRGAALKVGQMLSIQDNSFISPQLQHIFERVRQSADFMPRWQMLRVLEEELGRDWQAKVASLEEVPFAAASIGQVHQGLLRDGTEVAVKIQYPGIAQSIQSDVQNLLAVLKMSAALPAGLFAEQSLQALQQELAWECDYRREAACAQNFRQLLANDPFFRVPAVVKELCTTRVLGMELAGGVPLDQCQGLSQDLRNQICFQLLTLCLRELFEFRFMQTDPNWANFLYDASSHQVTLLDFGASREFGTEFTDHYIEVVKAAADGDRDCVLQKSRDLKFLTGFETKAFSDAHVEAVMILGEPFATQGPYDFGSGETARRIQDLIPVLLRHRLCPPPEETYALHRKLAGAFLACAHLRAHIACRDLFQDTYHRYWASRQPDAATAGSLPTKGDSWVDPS
Experimental: as §1, §2, §3, §4

[5] = target: T5, kinases of the scanMAX Kinase assay panel (Homo sapiens, UniProt Q99558); conditions: NIK; 1 uM
T5 construct: purchased DiscoverX Co. (contract measurement) scanMAX Kinase assay panel
T5 sequence (Q99558 whole entry): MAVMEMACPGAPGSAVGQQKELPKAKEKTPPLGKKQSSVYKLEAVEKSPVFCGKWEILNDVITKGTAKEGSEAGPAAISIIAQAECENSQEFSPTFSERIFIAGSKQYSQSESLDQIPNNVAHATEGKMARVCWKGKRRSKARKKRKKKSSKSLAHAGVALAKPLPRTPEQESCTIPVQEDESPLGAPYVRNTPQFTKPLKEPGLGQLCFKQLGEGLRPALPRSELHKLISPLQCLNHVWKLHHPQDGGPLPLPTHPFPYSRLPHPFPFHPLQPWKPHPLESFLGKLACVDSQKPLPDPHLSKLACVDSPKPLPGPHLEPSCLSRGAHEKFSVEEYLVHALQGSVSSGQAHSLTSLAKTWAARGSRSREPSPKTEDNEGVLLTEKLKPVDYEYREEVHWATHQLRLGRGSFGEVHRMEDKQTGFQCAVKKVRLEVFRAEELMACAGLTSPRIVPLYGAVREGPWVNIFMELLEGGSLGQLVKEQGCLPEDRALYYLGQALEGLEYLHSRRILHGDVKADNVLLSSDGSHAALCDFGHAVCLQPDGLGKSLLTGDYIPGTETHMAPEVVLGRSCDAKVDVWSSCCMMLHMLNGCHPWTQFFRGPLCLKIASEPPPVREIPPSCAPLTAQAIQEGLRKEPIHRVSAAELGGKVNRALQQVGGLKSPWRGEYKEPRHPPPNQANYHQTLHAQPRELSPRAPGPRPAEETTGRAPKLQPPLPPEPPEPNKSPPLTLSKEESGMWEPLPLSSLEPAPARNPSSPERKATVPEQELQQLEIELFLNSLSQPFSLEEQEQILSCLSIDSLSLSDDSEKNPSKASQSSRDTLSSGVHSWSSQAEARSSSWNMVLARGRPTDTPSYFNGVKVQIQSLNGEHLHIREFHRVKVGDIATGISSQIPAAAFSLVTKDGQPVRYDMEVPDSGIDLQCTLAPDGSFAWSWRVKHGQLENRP
Experimental: as §1, §2, §3, §4

[6] = target: T6, kinases of the scanMAX Kinase assay panel (Homo sapiens, UniProt P46734); conditions: MEK3; 1 uM
T6 construct: purchased DiscoverX Co. (contract measurement) scanMAX Kinase assay panel
T6 sequence (P46734 1-347): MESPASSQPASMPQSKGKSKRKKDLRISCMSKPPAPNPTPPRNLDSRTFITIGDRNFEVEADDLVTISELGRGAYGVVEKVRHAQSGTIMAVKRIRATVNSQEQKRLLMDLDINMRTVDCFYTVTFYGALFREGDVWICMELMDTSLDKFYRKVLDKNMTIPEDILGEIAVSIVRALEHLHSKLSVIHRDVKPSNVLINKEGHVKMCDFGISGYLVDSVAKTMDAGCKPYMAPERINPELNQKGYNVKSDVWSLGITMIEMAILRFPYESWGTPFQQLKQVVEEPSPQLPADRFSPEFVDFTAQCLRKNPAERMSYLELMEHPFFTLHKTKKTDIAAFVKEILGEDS
Experimental: as §1, §2, §3, §4

[7] = target: T7, kinases of the scanMAX Kinase assay panel (Homo sapiens, UniProt P15056); conditions: BRAF; 1 uM
T7 construct: purchased DiscoverX Co. (contract measurement) scanMAX Kinase assay panel
Experimental: as §1, §2, §3, §4

[8] = target: T8, kinases of the scanMAX Kinase assay panel (Homo sapiens, UniProt P08581); conditions: MET; 1 uM
T8 construct: purchased DiscoverX Co. (contract measurement) scanMAX Kinase assay panel
T8 sequence (P08581 25-1390): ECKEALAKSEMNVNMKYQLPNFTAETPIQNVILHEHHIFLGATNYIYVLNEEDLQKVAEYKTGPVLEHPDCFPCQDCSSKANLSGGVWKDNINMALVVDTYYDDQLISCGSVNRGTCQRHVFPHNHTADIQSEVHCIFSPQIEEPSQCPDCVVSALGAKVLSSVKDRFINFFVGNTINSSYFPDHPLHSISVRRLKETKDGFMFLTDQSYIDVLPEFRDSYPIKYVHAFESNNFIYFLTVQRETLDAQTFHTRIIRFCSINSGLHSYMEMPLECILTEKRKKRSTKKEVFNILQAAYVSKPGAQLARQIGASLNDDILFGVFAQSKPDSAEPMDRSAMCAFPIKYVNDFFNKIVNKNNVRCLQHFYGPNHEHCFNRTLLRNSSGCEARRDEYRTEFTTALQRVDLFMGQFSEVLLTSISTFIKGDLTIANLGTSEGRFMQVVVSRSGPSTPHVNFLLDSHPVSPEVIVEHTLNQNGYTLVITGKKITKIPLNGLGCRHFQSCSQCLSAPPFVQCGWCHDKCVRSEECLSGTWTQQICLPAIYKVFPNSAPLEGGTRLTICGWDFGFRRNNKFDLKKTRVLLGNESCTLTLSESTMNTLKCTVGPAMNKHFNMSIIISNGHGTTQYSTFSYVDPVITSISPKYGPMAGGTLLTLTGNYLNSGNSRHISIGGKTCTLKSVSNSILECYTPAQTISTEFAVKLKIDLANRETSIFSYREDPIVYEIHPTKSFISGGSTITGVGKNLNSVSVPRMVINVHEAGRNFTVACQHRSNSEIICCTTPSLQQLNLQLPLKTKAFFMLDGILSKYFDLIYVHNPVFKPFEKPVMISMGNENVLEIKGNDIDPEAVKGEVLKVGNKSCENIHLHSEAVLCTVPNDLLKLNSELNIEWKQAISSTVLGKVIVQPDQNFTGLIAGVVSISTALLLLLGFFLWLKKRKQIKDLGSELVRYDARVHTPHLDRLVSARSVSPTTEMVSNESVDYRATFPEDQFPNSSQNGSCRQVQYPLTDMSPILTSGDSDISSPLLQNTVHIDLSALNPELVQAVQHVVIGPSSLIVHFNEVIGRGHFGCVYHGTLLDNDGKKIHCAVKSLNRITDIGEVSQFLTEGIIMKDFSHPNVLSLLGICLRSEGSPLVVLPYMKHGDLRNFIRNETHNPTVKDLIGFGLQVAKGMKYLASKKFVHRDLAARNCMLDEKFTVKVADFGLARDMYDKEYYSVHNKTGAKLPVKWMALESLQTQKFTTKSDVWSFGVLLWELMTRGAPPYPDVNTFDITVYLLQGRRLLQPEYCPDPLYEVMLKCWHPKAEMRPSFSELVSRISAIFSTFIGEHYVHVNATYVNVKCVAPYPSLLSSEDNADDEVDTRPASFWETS
Experimental: as §1, §2, §3, §4

Row | SMILES | remaining binding at 1 µM [1] | remaining binding at 1 µM [2] | remaining binding at 1 µM [3] | remaining binding at 1 µM [4] | remaining binding at 1 µM [5] | remaining binding at 1 µM [6] | remaining binding at 1 µM [7] | remaining binding at 1 µM [8]
1 | CCNc1nc(Nc2ccc(C(=O)N3CCC(N4CCOCC4)CC3)cc2OC)nc2[nH]cc(C(F)(F)F)c12 [Example 104, (4-((4-(ethylamino)-5-(trifluoromethyl)-7H-pyrrolo[2,3-d]pyrimidine-2-yl)amino)-3-methoxyphenyl)(4-morpholinopiperidine-1-yl)methanone] | 69% | 80% | 100% | 100% | 16% | 12% | 100% | 100%
2 | CNc1nc(Nc2ccc(C(=O)N3CCOCC3)cc2OC)nc2[nH]cc(C#N)c12 [Example 1, 2-((2-methoxy-4-(morpholine-4-carbonyl)phenyl)amino)-4-(methylamino)-7H-pyrrolo[2,3-d]pyrimidine-5-carbonitrile] | 98% | 88% | 68% | 100% | 3.7% | 4.3% | 69% | 89%
3 | CC1(Nc2nc(Nc3cnn([C@H]4CCN(C5COC5)C[C@@H]4F)c3Cl)nc3[nH]cc(C#N)c23)CC1 [Example 52, 2-((5-chloro-1-((3S,4S)-3-fluoro-1-(oxetane-3-yl)piperidine-4-yl)-1H-pyrazole-4-yl)amino)((1-methylcyclopropyl)amino)-7H-pyrrolo[2,3-d]pyrimidine-5-carbonitrile] | 75% | 53% | 55% | 76% | 7.4% | 0.8% | 99% | 21%
